According to patent US10124007B2, “Combination of PI3K-inhibitors” (BAYER PHARMA AKTIENGESELLSCHAFT, priority 2013, dated 2018):
Several values for one entry are separate records, joined by “and”; a condition that tells them apart may be missing. Identical values can stand only once.

Legend:
[1] = test system: 4T1-GFP-fluorescent mouse breast cancer cells; experiment: 4T1-GFP syngeneic breast cancer bone metastasis model in mice; assay type: in vivo, Balb/c mice; details: for Survival Days after Treatment, Average: average of 10 survival animals; for Survival Days after Treatment, Average / Survival Days after Treatment: radium 223 300 kBq/kg iv once, Compound A1 75 mg/kg po QD; for Survival Days after Treatment: individual survival animals 1-10; for Adrenal glands with metastasis / Ovaries with metastasis / Kidneys with metastasis: non-survival animals sacrificed at day 12 or 13; for Kidneys with metastasis: macroscopic findings and fluorescence imaging
Experimental: The monotherapy and the combination of compound A1 and radium 223 were tested in a syngeneic animal model that resembles the characteristics of breast cancer bone metastatic disease in humans. This model can be effectively used for testing the effects of cancer drug candidates on the metastasis of breast cancer cells to bone.
To this extend, 4T1-GFP-fluorescent mouse breast cancer cells were inoculated into the left cardiac ventricle of 4-5 weeks old female Balb/c mice. Within one-two weeks after the inoculation, the animals developed osteolytic bone metastases that can be visualized by GFP-fluorescence and X-ray radiography.
On day 7 post tumor cell inoculation, animals were randomized according to radiography and presence of tumor metastases. On day 7, animals were dosed with a single dose of radium 223 or vehicle, daily dose of PI3K inhibitor or a combination treatment with single dose of radium 223 and daily continuous dosing of PI3K inhibitor. Half of the animals (n=10) from each treatment group were sacrificed on day 13 after inoculation, or earlier when they were moribund, half of the animals (N=10) were sacrificed when they became moribund. The osteolytic lesions and whole body tumor burden were measured by x-ray and fluorescence imaging at sacrifice. Furthermore, tissue samples from the left and right tibia and femur were collected for further histomorphometric analysis. Tissue was embedded in paraffin for histomorphometric analysis of bone and tumor area.
Groups: Control group (vehicle) received Alpharadin vehicle (sodium citrate buffer), iv once and PEG/Wfi 60:40 pH 4.0, po QD; radium 223 group was given at 300 kBq/kg of radium 223, iv once and PEG/Wfi 60:40 pH 4.0, po QD; PI3K group was given 75 mg/kg of Compound A1, po QD and radium 223 vehicle, iv once; the combination group was given 300 kBq/kg of radium 223, iv once and 75 mg/kg of Compound A1, po QD;

[2] = test system: LNCaP prostate cancer cells in bone; experiment: Orthotopic LNCaP CRPC bone model in mice; assay type: in vivo; details: for Tumor growth (effect in words): LNCaP CRPC model; for Number of osteoclasts at tumor-bone interface (effect in words): TRAP staining; for Inhibition of progression of osteoblastic lesions / Growth/progression of osteoblastic lesions (effect in words): x-ray radiography; for Growth/progression of osteoblastic lesions (effect in words): lesion area
Excerpt: The monotherapy and the combination of compound A1 and radium 223 were further tested in an orthotopic model of LNCaP, a CRPC cell line in mice. The LNCaP cells are known to form osteoblastic and mixed lesions when inoculated to bone marrow cavity. We used this model for testing the effects of compound A1 and radium-223 as single agent and in combination on the growth of LNCaP prostate cancer cells in bone. The osteoblastic bone metastases was visualized by X-ray radiography about six weeks post tumor cell inoculation. Mice with established bone metastases were randomized and treated for 45 days. The following four experimental groups with 13-14 mice in each were included in the study:
1) Vehicle control (Compd A1 vehicle QD po)
2) Ra-223 300 kBq/kg (dosed twice at 4-week intervals)+vehicle QD po
3) Compd A1 75 mg/kg (po QD)
Body weights were determined twice a week. Blood samples were taken and the animals radiographed biweekly. The animals were sacrificed 45 days after dosing, or earlier if they were moribund. Terminal blood samples were taken. Tissue samples were collected and processed for gamma-counter measurements, microCT measurements and histomorphometry.

MCF-7 [3] = experiment: WST-1 based proliferation assay, MCF-7; assay type: cell-based, human; details: WST-1, days 1-5
Experimental: (§1) The effects of PI3K inhibitor Compound A1 and radium 223 in MCF-7 and 4T1 breast cancer cells and PC-3 and LNCaP prostate cancer cells were investigated in vitro as single agent and in combination. The effects were studied by measuring cell proliferation and apoptosis. Radium 223 and the reference inhibitor doxorubicin were added at day 0. The PI3K inhibitor(s) was added at day −1 (24 hours before addition of Alpharadin) and at day 4. The following two concentrations of the inhibitors and two concentrations of radium 223 in 4 replicates were tested:
(§2) The effects on cell proliferation were studied using a WST-1 based proliferation assay and the effects on apoptosis were studied in parallel plates by measuring caspase 3/7 activity. The measurements were performed at 4 different time points, days 1, 2, 3 and 5. Caspase activity was normalized to the cell number obtained with the WST-1 assay in parallel plates.

4T1 = experiment: WST-1 based proliferation assay, 4T1; assay type: cell-based, mouse; details: for 4T1 cell proliferation at lower dose (effect in words): lower (250 nM) dose
Experimental: as §1, §2

PC-3 = experiment: WST-1 based proliferation assay, PC-3; assay type: cell-based, human; details: WST-1, days 1-5
Experimental: as §1, §2

LNCaP = experiment: WST-1 based proliferation assay, LNCaP; assay type: cell-based, human; details: for LNCaP cell proliferation (effect in words): WST-1, days 1-5
Experimental: as §1, §2

MCF-7 [4] = experiment: Caspase 3/7 apoptosis assay, MCF-7; assay type: cell-based, human; details: caspase 3/7 normalized to WST-1, day 2
Experimental: as §1, §2

[5] = test system: patients with CRPC (Castration Resistant Prostate Cancer) and bone metastases; details: cited from earlier work
[6] = single dose 250 kBq per kg body weight; cited from earlier work
[7] = test system: patients with bone metastases; details: cited from earlier work
[8] = fluorescence imaging at sacrifice

Row | Compound | Survival Days after Treatment, Average [1] | Whole body tumor burden (effect in words) [1, 8] | Survival Days after Treatment [1] | Adrenal glands with metastasis [1] | Ovaries with metastasis [1] | Kidneys with metastasis [1] | Tumor growth (effect in words) [2] | Number of osteoclasts at tumor-bone interface (effect in words) [2] | Inhibition of progression of osteoblastic lesions [2] | Growth/progression of osteoblastic lesions (effect in words) [2] | MCF-7 cell proliferation (effect in words) (MCF-7 [3]) | 4T1 cell proliferation at lower dose (effect in words) (4T1) | PC3 cell proliferation (effect in words) (PC-3) | LNCaP cell proliferation (effect in words) (LNCaP) | MCF-7 apoptosis induction / tumor cell death (effect in words) (MCF-7 [4]) | further results
1 | COc1c(OC[C@H](O)CN2CCOCC2)ccc2c1N=C(NC(=O)c1cccnc1C)N1CCN=C21 [Compound A1, N-(8-{[(2R)-2-hydroxy-3-(morpholin-4-yl)propyl]oxy}-7-methoxy-2,3-dihydroimidazo[1,2-c]quinazolin-5-yl)-2-methylpyridine-3-carboxamide] | 6.6 days | significantly decreased | 6 days (5×) and 4 days and 8 days (4×) | 61% | 56% | 17% | potently inhibited | decreased | 50% | significantly inhibited | potent anti-proliferative activity | only moderate inhibition | better anti-proliferactive activity | strong anti-proliferative effects | only at high dose can induce apoptosis | Whole body tumor burden reduction ([1]; fluorescence imaging at sacrifice, day 13 after inoculation, 6 days of treatment): 67%; Whole body tumor burden (effect in words) ([1]; fluorescence imaging at sacrifice, listed as compound A1): decreased; Reduction of kidney metastases ([1]; frequency of soft tissue metastases): 73%; Relative tumor area in bone marrow area (effect in words) ([1]; histomorphometry, ANOVA p=0.099477): Trends of inhibition; Reduction in total osteolytic area ([1]; radiography at sacrifice): 53.2%; Total osteolytic area / tumor-induced osteolysis (effect in words) ([1]; radiography at sacrifice): strongly inhibited
2 | COc1cccc2c1C(=O)c1c(O)c3c(c(O)c1C2=O)C[C@@](O)(C(=O)CO)C[C@@H]3O[C@H]1C[C@H](N)[C@H](O)[C@H](C)O1 [doxorubicin] |  |  |  |  |  |  |  |  |  |  | inhibited proliferation |  | inhibited proliferation | inhibited proliferation |  | 4T1 cell proliferation (effect in words) (4T1; WST-1, days 1-5): inhibited proliferation
3 | [Cl][223Ra][Cl] [radium 223, radium-223 dichloride] | 6.8 days | not statistically significant | 8 days (4×) and 6 days (6×) | 94% | 94% | 22% | potently inhibited | eradicated | 56% | significantly inhibited | only slight inhibition | only moderate inhibition | moderate inhibition |  | could not induce tumor cell death | Number of osteoclasts at tumor-bone interface (effect in words) ([2]; listed as Ra-223): decreased; 4T1 cell proliferation at higher dose (effect in words) (4T1; higher dose): strong anti-proliferative effects; LNCaP cell proliferation at high dose (effect in words) (LNCaP; high dose (1600 Bq/mL)): effective; Median survival longer than placebo ([5]; in vivo): 2.8 months; Time to first skeletal-related event ([5]; in vivo): significantly prolonged; Reduction in risk of death compared with placebo ([5]; overall survival): 30.5%; Observed adverse reactions [6]: diarrhea and reversible myelosuppression; Disease-related biomarkers (bone ALP, PSA) ([7]; Phase 2 studies): improves disease-related biomarkers; Pain ([7]; Phase 2 studies): reduces pain; Safety profile ([7]; phase 1 and 2 studies): favorable safety profile, with minimal myelotoxicity
